Reference: PMC8429728, “TNK1 is a ubiquitin-binding and 14-3-3-regulated kinase that can be targeted to block tumor growth” (Nature Communications, 2021)
Read-outs that look alike come from different tables or passages of the source.

Tests used:
Aurora A = target: T1, Aurora A (Homo sapiens, UniProt O14965); experiment: radiometric […]-ATP kinase assay with recombinant kinase at Km ATP ([…]); format: biochemical
T1 construct: gene AURKA
T1 sequence (O14965 1-403): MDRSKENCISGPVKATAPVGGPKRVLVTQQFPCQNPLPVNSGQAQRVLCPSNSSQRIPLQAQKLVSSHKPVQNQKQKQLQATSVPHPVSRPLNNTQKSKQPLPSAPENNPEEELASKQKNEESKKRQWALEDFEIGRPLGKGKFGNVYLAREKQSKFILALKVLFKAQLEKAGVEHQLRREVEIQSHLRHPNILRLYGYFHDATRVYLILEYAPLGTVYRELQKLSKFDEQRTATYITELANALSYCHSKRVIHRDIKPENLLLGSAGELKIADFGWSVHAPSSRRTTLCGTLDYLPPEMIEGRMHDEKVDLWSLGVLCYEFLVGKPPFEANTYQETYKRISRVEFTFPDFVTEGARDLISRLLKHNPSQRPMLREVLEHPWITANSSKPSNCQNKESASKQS

TNK1 = target: T2, TNK1 (Homo sapiens, UniProt Q13470); experiment: radiometric […]-ATP kinase assay with recombinant kinase at Km ATP ([…]); supported by NanoBRET target engagement in HEK293 cells (IC50 […]); format: biochemical
T2 sequence (Q13470 1-666): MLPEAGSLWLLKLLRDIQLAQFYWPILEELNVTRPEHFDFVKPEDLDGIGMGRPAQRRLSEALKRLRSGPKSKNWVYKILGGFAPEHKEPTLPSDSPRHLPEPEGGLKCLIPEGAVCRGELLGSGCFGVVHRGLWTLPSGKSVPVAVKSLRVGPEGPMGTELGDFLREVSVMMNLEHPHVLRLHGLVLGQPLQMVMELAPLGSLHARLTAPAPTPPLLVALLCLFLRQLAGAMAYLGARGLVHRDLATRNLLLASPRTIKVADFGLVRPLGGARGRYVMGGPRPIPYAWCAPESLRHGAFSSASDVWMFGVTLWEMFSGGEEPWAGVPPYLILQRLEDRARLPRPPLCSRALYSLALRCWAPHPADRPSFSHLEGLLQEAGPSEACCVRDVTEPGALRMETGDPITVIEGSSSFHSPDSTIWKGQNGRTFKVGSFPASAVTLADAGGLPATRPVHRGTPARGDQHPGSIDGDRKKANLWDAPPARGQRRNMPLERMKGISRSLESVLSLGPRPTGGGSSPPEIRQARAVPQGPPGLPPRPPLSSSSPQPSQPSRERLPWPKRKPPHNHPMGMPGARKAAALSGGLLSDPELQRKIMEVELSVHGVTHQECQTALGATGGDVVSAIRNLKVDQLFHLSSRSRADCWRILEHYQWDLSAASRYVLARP

CDK2/CYCLIN E = CDK2/CYCLIN E (Homo sapiens, UniProt P24941); experiment: biochemical; parameters: Reaction Biology 371-kinase panel at Km ATP, per cent enzyme activity relative to DMSO, single dose in duplicate; details: duplicate measurements, Km ATP
In short: (§1)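 Percent kinase activity relative to vehicle (DMSO) is reported for a 371-kinase in vitro panel at 300 nM compound; IC50 values derive from variable-slope sigmoidal fits with the lower plateau fixed at 0.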

ERBB2/HER2 = ERBB2/HER2 (Homo sapiens, UniProt P04626); experiment: biochemical; parameters: Reaction Biology 371-kinase panel at Km ATP, per cent enzyme activity relative to DMSO, single dose in duplicate; details: duplicate measurements, Km ATP
Sequence of ERBB2/HER2 (P04626 whole entry): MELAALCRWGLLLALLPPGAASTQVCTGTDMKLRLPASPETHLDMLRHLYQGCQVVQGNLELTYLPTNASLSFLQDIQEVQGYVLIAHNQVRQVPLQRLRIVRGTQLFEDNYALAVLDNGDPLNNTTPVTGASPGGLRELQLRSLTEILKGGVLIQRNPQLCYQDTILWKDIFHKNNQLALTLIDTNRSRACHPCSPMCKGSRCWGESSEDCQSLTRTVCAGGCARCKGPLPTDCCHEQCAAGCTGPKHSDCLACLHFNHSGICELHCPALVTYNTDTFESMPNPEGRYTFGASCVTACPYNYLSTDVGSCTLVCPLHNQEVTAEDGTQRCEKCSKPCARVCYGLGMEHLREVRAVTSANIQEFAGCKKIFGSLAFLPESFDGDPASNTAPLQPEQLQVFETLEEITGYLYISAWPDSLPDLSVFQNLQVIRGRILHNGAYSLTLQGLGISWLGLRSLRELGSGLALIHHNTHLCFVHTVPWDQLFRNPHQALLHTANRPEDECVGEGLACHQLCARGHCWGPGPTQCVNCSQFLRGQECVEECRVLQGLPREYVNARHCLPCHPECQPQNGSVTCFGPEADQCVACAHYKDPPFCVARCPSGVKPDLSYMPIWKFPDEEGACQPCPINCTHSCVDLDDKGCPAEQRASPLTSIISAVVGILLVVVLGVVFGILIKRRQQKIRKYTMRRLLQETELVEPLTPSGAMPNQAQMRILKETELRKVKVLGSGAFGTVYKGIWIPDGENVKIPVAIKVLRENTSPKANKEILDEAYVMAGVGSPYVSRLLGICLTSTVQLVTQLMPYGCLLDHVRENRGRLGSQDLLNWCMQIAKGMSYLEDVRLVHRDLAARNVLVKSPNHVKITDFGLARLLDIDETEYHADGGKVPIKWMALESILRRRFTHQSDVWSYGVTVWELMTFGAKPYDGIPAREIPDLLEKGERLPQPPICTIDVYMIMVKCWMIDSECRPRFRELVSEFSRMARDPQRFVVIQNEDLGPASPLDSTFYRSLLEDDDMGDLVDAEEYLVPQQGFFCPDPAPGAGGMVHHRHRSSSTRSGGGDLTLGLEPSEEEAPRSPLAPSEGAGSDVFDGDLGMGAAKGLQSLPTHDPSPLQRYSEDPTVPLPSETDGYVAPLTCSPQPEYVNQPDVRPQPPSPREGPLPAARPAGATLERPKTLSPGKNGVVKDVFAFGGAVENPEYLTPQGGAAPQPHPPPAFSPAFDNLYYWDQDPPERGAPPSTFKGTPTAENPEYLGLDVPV
In short: as §1

GCK/MAP4K2 = GCK/MAP4K2 (Homo sapiens, UniProt Q12851); experiment: biochemical; parameters: Reaction Biology 371-kinase panel at Km ATP, per cent enzyme activity relative to DMSO, single dose in duplicate; details: duplicate measurements, Km ATP
Sequence of GCK/MAP4K2 (Q12851 whole entry): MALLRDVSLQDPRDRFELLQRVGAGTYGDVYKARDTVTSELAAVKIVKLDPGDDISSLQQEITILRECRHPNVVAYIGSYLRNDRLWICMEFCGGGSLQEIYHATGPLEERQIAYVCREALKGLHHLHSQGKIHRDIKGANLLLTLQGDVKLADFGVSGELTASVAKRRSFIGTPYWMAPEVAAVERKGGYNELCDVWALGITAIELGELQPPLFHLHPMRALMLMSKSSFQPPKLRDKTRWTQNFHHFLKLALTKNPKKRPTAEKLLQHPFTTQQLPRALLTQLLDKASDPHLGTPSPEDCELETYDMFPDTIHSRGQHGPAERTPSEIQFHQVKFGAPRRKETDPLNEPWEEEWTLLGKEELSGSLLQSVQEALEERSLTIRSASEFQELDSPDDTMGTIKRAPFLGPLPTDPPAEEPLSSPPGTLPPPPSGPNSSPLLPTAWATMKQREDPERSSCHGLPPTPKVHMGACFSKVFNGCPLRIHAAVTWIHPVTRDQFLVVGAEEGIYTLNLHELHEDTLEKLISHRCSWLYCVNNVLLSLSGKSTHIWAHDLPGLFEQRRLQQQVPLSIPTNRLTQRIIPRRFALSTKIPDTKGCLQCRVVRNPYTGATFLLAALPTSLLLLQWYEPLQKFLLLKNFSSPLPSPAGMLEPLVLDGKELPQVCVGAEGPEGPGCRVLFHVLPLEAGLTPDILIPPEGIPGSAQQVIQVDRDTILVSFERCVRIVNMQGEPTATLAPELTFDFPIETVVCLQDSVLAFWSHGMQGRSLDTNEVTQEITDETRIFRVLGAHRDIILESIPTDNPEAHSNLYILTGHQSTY
In short: as §1

MLCK/MYLK = MLCK/MYLK (Homo sapiens, UniProt Q15746); experiment: biochemical; parameters: Reaction Biology 371-kinase panel at Km ATP, per cent enzyme activity relative to DMSO, single dose in duplicate; details: duplicate measurements, Km ATP
In short: as §1

MST1/STK4 = MST1/STK4 (Homo sapiens, UniProt Q13043); experiment: biochemical; parameters: Reaction Biology 371-kinase panel at Km ATP, per cent enzyme activity relative to DMSO, single dose in duplicate; details: duplicate measurements, Km ATP
Sequence of MST1/STK4 (Q13043 whole entry): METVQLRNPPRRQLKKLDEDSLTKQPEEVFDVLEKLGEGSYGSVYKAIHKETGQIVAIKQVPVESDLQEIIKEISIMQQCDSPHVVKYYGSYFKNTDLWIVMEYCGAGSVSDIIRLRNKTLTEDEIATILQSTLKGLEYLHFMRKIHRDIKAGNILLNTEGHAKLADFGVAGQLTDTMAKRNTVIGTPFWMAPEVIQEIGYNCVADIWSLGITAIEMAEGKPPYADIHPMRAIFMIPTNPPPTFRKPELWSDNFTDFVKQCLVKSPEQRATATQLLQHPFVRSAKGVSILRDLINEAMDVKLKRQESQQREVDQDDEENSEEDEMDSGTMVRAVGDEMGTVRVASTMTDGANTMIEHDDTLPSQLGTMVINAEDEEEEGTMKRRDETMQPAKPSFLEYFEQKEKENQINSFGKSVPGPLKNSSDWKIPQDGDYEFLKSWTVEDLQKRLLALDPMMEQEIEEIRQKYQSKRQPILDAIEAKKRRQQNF
In short: as §1

PKCepsilon = target: T3, PKCepsilon (Homo sapiens, UniProt Q02156); experiment: biochemical; parameters: Reaction Biology 371-kinase panel at Km ATP, per cent enzyme activity relative to DMSO, single dose in duplicate; details: duplicate measurements, Km ATP
T3 construct: gene PRKCE
T3 sequence (Q02156 whole entry): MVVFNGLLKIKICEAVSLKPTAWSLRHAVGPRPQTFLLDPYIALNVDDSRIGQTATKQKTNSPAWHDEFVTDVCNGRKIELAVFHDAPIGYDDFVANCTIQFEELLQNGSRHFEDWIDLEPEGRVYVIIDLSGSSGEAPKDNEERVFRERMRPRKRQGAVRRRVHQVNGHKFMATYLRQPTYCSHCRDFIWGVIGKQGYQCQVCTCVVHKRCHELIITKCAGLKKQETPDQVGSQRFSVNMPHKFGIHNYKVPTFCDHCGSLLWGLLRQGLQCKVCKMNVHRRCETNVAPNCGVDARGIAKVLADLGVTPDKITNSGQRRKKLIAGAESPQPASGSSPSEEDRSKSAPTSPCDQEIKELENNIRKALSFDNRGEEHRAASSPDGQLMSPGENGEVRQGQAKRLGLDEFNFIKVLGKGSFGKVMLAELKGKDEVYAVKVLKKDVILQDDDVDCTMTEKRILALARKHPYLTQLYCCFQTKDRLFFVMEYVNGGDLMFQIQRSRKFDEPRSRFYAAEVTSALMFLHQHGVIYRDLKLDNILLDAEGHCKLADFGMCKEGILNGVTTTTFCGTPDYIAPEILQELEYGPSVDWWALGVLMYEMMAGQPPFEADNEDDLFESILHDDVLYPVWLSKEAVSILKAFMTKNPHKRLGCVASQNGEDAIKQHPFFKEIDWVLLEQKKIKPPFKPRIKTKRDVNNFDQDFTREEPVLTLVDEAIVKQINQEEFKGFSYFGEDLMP
In short: as §1

PYK2 = target: T4, PYK2 (Homo sapiens, UniProt Q14289); experiment: biochemical; parameters: Reaction Biology 371-kinase panel at Km ATP, per cent enzyme activity relative to DMSO, single dose in duplicate; details: duplicate measurements, Km ATP
T4 construct: gene PTK2B
T4 sequence (Q14289 whole entry): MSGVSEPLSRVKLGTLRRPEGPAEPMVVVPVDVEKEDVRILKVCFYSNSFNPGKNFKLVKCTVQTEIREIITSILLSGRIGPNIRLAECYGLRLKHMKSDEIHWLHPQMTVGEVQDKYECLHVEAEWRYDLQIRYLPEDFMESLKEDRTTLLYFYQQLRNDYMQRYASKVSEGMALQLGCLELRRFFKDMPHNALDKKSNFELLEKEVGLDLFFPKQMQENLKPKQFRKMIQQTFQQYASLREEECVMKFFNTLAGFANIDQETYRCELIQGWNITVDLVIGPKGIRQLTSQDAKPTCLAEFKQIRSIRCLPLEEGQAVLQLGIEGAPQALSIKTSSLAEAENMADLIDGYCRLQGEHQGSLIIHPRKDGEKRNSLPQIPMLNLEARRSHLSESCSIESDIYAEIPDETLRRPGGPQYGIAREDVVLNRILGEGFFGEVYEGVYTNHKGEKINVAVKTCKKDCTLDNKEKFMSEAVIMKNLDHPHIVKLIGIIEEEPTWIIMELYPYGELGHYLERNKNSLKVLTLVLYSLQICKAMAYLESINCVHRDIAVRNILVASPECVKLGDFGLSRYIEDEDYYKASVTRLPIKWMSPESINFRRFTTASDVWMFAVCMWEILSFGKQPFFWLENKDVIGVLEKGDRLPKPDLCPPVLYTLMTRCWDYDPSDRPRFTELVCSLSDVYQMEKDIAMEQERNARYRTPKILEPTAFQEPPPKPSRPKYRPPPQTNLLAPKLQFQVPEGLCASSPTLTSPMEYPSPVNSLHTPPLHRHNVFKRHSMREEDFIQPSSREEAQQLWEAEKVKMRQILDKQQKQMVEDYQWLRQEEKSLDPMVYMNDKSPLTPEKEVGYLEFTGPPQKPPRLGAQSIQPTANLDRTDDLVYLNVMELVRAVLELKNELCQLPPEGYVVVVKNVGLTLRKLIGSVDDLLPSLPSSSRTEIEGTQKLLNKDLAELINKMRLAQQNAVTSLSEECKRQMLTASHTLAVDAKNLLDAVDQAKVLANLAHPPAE
In short: as §1

TESK2 = TESK2 (Homo sapiens, UniProt Q96S53); experiment: biochemical; parameters: Reaction Biology 371-kinase panel at Km ATP, per cent enzyme activity relative to DMSO, single dose in duplicate; details: duplicate measurements, Km ATP
Sequence of TESK2 (Q96S53 whole entry): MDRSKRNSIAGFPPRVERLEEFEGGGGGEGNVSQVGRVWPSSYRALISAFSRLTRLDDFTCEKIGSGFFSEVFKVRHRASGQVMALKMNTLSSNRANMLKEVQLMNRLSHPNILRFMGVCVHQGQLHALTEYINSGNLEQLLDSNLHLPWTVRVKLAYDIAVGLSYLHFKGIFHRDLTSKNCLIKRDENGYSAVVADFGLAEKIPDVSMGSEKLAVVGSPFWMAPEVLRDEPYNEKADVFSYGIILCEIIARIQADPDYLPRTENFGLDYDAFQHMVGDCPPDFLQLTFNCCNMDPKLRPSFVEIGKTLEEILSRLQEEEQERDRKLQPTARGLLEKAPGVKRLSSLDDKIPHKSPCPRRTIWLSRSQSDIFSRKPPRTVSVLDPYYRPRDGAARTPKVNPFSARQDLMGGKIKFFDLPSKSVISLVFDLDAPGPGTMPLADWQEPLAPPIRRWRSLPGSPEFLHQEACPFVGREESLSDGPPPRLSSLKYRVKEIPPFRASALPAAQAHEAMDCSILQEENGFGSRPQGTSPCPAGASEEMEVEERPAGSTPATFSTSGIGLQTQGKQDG
In short: as §1

[1] = read-out: % Enzyme Activity (relative to DMSO controls) / TP-0005801 (0.3µM) / Data 1
[2] = read-out: % Enzyme Activity (relative to DMSO controls) / TP-0005801 (0.3µM) / Data 2

IC50 (Aurora A): 5380 nM | IC50 (TNK1): 1.4 nM | remaining activity at 0.3 µM (CDK2/CYCLIN E; [1]): 91.7% | remaining activity at 0.3 µM (CDK2/CYCLIN E; [2]): 91.2% | remaining activity at 0.3 µM (ERBB2/HER2; [1]): 82.3% | remaining activity at 0.3 µM (ERBB2/HER2; [2]): 81.7% | remaining activity at 0.3 µM (GCK/MAP4K2; [1]): 76.1% | remaining activity at 0.3 µM (GCK/MAP4K2; [2]): 73.9% | remaining activity at 0.3 µM (MLCK/MYLK; [1]): 93.8% | remaining activity at 0.3 µM (MLCK/MYLK; [2]): 90.8% | remaining activity at 0.3 µM (MST1/STK4; [1]): 101% | remaining activity at 0.3 µM (MST1/STK4; [2]): 97.2% | remaining activity at 0.3 µM (PKCepsilon; [1]): 93.6% | remaining activity at 0.3 µM (PKCepsilon; [2]): 93.3% | remaining activity at 0.3 µM (PYK2; [1]): 23.7% | remaining activity at 0.3 µM (PYK2; [2]): 23.5% | remaining activity at 0.3 µM (TESK2; [1]): 92.8% | remaining activity at 0.3 µM (TESK2; [2]): 90.1%
SMILES: COc1cc(N2CCN(C)CC2)c(C)cc1Nc1ncc(Br)c(Nc2cccnc2N(C)C)n1 [TP-5801]
